In paper PMC6017873 (Molecules : A Journal of Synthetic Chemistry and Natural …, 2018):
Several values for one entry are separate records, joined by “and”; a condition that tells them apart may be missing. Identical values can stand only once.

Columns and labels:
[1] = test system: total HDAC activity (K-562 nuclear extracts); experiment: In vitro total HDAC activity using K-562 nuclear extracts; assay type: biochemical, human; settings: 100 µM
Description: (§1) (a) In vitro total HDAC activity was evaluated using K-562 nuclear extracts in the presence of various concentrations of eurochevalierine. (b) Selective in vitro HDAC activity assays were carried out using selected recombinant HDAC proteins in the presence of various concentrations of eurochevalierine. Results are reported as percent of DMSO vehicle control and expressed as the mean ± SD of three independent experiments. * and ** indicate p < 0.05 and p < 0.01 versus untreated cells, respectively.

SK-MEL-28 cells = experiment: Acetylation of sirtuin targets by Western blot, SK-MEL-28; assay type: cell-based, human; settings: SK-MEL-28, 5 and 50 µM, 8 h
Description: (§2) Figure 5 Effect of eurochevalierine on the acetylation status of sirtuin targets. SK-MEL-28, U-373, and A-549 cells were treated with 5 and 50 µM eurochevalierine (EU) for 8 h. Acetylation of histone H4 (AcH4), histone H3 at lysine 56 (AcH3K56), and α-tubulin (Ac α-tubulin) was analyzed via Western blot. β-actin and histone H1 were used as loading controls for the analysis of total and acid extracts, respectively. SAHA (S, 1 µM) was used as a reference HDAC inhibitor. Blots are representative of three independent experiments.
(§3) Total proteins were extracted using the MPER® reagent (Thermo-scientific, Erembodegem-Aalst, Belgium) supplemented by 1× protease inhibitor cocktail (Complete EDTA-free, Roche, Prophac, Luxembourg, Luxembourg) according to manufacturer’s instructions. Histones were extracted as previously described. Western blots were carried out as previously reported.
(§4) Corresponding secondary antibodies were from Santa Cruz Biotechnology.

U-373 cells = experiment: Sub-G1 fraction by PI flow cytometry, U-373; assay type: cell-based, human; settings: U-373, 50 µM, 72 h
Description: Figure 2 Effect of eurochevalierine on cell cycle distribution. Cells were treated with 50 µM eurochevalierine for 72 h and then stained with propidium iodide (PI), and DNA content was measured by flow cytometry. (a) Cell cycle distribution profile in A-549 cells. Results of three independent experiments are represented on the same graph. (b) Quantification of the number of cells in sub-G1 fraction as a percentage of the total cell population. Results are expressed as mean ± SD of at least three independent experiments.
Cells were collected, fixed, and stained with the APO AF TUNEL detection kit (BD, Erembodegem, Belgium) allowing analysis of both apoptosis and cell cycle at the same time. The experiment was conducted accordingly to the procedure of the manufacturer. Data were obtained through flow cytometry with a Cell Lab Quanta apparatus (Analis, Suarlee, Belgium).

HDAC3 = HDAC3 (Homo sapiens, UniProt O15379); experiment: Selective in vitro HDAC activity assay, recombinant HDAC3; assay type: biochemical; settings: 100 µM
Description: as §1

SIRT2 = target: T1, SIRT2 (Homo sapiens, UniProt Q8IXJ6); experiment: In vitro SIRT2 activity assay; settings: IC50 SIRT2, mean ± SD of three independent experiments
T1 sequence (Q8IXJ6 1-389): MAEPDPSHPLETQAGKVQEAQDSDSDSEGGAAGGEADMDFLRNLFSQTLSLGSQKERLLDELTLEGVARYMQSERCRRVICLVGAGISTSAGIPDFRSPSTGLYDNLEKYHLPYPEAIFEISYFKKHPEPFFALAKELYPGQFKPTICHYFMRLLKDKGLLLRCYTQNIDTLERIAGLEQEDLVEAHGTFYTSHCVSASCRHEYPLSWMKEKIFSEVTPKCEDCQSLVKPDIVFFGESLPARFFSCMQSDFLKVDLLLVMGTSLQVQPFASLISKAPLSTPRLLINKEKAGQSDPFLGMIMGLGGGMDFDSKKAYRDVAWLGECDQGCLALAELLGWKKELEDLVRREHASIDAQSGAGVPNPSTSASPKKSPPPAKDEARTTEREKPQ

A-549 cells = experiment: Acetylation of sirtuin targets by Western blot, A-549; assay type: cell-based, human; settings: A-549, 5 and 50 µM, 8 h
Description: as §2, §3, §4

HDAC11 = target: T2, HDAC11 (Homo sapiens, UniProt Q96DB2); experiment: Selective in vitro HDAC activity assay, recombinant HDAC11; assay type: biochemical
T2 sequence (Q96DB2 1-347): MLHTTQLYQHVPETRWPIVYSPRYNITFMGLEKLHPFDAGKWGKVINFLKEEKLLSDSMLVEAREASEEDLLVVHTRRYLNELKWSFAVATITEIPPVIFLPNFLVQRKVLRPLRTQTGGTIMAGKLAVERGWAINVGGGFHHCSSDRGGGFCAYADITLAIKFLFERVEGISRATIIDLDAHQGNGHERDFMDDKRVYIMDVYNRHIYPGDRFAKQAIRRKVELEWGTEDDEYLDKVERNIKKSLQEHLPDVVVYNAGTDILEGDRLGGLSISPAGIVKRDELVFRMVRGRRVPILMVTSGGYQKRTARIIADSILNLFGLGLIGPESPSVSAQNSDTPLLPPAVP
Description: as §1

SIRT1 = target: T3, SIRT1 (Homo sapiens, UniProt Q96EB6); experiment: In vitro SIRT1 activity assay; settings: IC50 SIRT1, mean ± SD of three independent experiments
T3 sequence (Q96EB6 1-747): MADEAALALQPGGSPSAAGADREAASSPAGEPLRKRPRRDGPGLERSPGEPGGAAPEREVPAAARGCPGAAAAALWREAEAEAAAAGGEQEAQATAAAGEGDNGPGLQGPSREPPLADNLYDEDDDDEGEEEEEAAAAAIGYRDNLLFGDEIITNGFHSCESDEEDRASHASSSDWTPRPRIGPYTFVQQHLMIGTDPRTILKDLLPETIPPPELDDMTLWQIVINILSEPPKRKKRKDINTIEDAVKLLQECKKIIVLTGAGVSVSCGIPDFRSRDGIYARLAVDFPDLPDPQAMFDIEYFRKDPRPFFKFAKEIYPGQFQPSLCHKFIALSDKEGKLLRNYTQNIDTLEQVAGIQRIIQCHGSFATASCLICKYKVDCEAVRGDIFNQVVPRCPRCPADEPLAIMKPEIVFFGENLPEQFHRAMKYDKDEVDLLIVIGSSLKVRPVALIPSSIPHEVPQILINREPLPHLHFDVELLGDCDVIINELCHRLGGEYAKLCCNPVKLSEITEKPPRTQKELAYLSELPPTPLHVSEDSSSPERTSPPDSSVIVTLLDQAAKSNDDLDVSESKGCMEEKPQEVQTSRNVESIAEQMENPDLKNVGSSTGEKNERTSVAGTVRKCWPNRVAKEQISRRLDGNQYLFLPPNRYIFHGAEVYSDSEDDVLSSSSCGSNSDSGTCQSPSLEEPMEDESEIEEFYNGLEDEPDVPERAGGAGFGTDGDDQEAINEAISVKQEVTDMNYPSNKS

HDAC3, sequence (O15379 whole entry): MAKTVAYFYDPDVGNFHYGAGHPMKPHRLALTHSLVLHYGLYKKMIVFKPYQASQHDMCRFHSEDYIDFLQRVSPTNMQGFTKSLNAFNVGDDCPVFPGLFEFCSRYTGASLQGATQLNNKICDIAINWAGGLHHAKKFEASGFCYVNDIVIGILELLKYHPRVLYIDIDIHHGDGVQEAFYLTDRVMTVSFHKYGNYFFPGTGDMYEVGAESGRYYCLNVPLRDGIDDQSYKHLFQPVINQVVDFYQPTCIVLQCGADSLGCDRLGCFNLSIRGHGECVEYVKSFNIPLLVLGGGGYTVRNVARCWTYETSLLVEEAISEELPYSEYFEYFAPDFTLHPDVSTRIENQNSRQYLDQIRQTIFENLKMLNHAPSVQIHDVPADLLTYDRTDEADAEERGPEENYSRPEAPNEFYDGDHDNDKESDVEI
HDAC3, sequence (Q9Y618 395-489 partner limits assumed): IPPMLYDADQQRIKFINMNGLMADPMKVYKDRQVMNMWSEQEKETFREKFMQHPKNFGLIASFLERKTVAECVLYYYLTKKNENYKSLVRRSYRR

Compound: C=C(C)[C@@H]1CC[C@@H](C)[C@@]2(O)[C@@H]1C=C(C)[C@@H](OC(C)=O)[C@@H]2OC(=O)[C@H](CC(=O)c1ccccc1NC)NC=O [Eurochevalierine, eurochevalierine]
- inhibition of total HDAC activity [1]: about 33%
- acetylation of sirtuin targets (AcH4, AcH3K56, Ac α-tubulin) (SK-MEL-28 cells): robust and dose-dependent increase
- sub-G1 fraction (U-373 cells): did not increase the sub-G1 fraction
- induction of HDAC3 activity (HDAC3): 1.5 fold
- IC50 (SIRT2): 10 µM and ~10 µM and 10.2 µM
- acetylation of sirtuin targets (AcH4, AcH3K56, Ac α-tubulin) (A-549 cells): robust and dose-dependent increase
- inhibition at 100 µM (HDAC11): ~51%
- IC50 (SIRT1): ~10 µM and 9.8 µM
